Test results taken from patent US10393744B2, “Peptides for targeting colorectal cancer, and medical use thereof” (UNIVERSITY OF ULSAN FOUNDATION FOR INDUSTRY COOPERATION, priority 2014, dated 2019).

What was measured:
[1] = system: Radio-sensitive colorectal cancer tissue of patient (case C87); test: In vivo/ex vivo imaging and phage elution of Cy5.5-labeled peptide-expressing phages in mouse model transplanted with patient's colorectal cancer tissue (Example 4); design: species or system nude mouse; details: for in vivo ROI: Cy5.5 fluorescence total flux standardized to Cy5.5 dye control; for pfu/mg (concentration of eluted phages relative to weight of cancer tissue) / ex vivo ROI: extracted cancer tissue; for ex vivo ROI: standardized to Cy5.5 dye control
Excerpt: (§1) Then, the distributed cancer tissue was kept in a specific preservative solution and transferred directly to an animal chamber, so as to maintain a state in which the cancer tissue was not separated from a patient yet. After an NOD/SCID mouse was anesthetized via intraperitoneal injection of anesthetics, the cancer tissue was cut into pieces each having a size of 3×3 mm. Next, each of both flanks of the NOD/SCID mouse was transplanted with a piece of the cut cancer tissues, and sutured. The NOD/SCID mouse was then recovered on a heating pad for about 2 hours (conditions of the preservative solution: HBSS containing 100 IU/ml penicillin, 100 μg/ml streptomycin, 100 μg/ml gentamicin, 2.5 μg/ml amphotericin B, and 5% fetal bovine serum). After completion of the transplantation, the NOD/SCID mouse was raised until tumors were formed. Meanwhile, the formation and growth of tumors were checked at least once a week. When the transplanted cancer tissues grew to a size of at least 500 mm^3, an extraction process was performed thereon. Then, the extracted cancer tissues were each cut into pieces each having a size of 3×3 mm for subculturing. A nude mouse was anesthetized via intraperitoneal injection of anesthetics, and a piece of the cut cancer tissues was transplanted subcutaneously on the right thigh of the nude mouse. A transplantation site was changed from the flank to the thigh so that irradiation can be locally done without affecting other organs during irradiation. That is, a finally used mouse model transplanted with a patient's colorectal cancer tissue in the present invention was a mouse model established in a way that a cancer tissue that underwent subculturing four times was re-transplanted to form a cancer tissue. When the size of the cancer tissue was increased to about 250 mm^3, only the cancer tissue was irradiated with 2 grays (Gy) of radiation. After having recovery time for no longer than 24 hours, in vivo peptide screening was performed. Here, a non-irradiated population, which is a control group, was also subjected to screening in a separate manner.
(§2) In detail, regarding in vivo imaging verification, the peptide-expressing phage was amplified, and a process of linking a fluorescent probe (Cy5.5) was performed. In particular, 1 μg/μl of N-hydroxysuccinimide esters of Cy5.5 (Amersham) was added to 1 mL of bicarbonate buffer (pH 8.3) having the phage concentration of 10^12 plaque forming units (pfu), and then, in a condition where a dark environment was maintained, a phage-surface protein was linked to the Cy5.5 fluorescent probe at room temperature for 3 hours. That is, amine groups of the phage-surface protein were chemically linked to N-hydroxysuccinimide esters of the Cy5.5 fluorescent probe via a covalent bond. The peptide-expressing phages to which the Cy5.5 fluorescent probe was linked were each obtained by precipitation with 170 μl of 20% (w/v) PEG 8000/2.5 M NaCl solution and purification. To determine a proportion of the Cy5.5 fluorescent probe linked to each of the finally obtained phage samples, an IVIS spectrum imaging system (Xenogen) was used for measurement, and region of interest (ROI) values were determined using the software program of a corresponding device.
(§3) In addition, on the last day of the in vivo imaging, the cancer tissues were each extracted, to thereby obtain ex vivo images thereof.

[2] = system: Radio-resistant colorectal cancer tissue of patient (case C65); test: as above; design: species or system nude mouse; details: for in vivo ROI: Cy5.5 fluorescence total flux standardized to Cy5.5 dye control; for pfu/mg (concentration of eluted phages relative to weight of cancer tissue) / ex vivo ROI: extracted cancer tissue; for ex vivo ROI: standardized to Cy5.5 dye control
Excerpt: as §1, §2, §3

[3] = case C87, irradiated population (2 Gy)
[4] = case C65, non-irradiated population
[5] = case C87, non-irradiated population
[6] = case C65, irradiated population (2 Gy)

Row | Substance | in vivo ROI [2, 4] | ex vivo ROI [2, 4] | in vivo ROI [1, 5] | pfu/mg (concentration of eluted phages relative to weight of cancer tissue) [1, 5] [pfu/mg] | ex vivo ROI [1, 5] | also measured
1 | NGNSNTL [F9] |  |  |  |  |  | in vivo ROI [1, 3]: 1.77; pfu/mg (concentration of eluted phages relative to weight of cancer tissue) [1, 3]: 95.24 pfu/mg; ex vivo ROI [1, 3]: 4.45
2 | STEHTRS [A4] | 3.20 | 1.83 |  |  |  | pfu/mg (concentration of eluted phages relative to weight of cancer tissue) [2, 4]: 264.86 pfu/mg
3 | DNSKLVE [F4] |  |  |  |  |  | in vivo ROI [1, 3]: 1.59; pfu/mg (concentration of eluted phages relative to weight of cancer tissue) [1, 3]: 69.18 pfu/mg; ex vivo ROI [1, 3]: 3.11
4 | TVRTSAV [E9] |  |  | 1.27 | 86.40 | 1.20 | 
5 | AIKNTKS [E8] |  |  | 0.90 | 15.00 | 0.49 | 
6 | RSTGSSC [E16] |  |  | 0.50 | 2.14 | 0.24 | 
7 | LKLGEKW [B7] |  |  |  |  |  | in vivo ROI [2, 6]: 1.72; pfu/mg (concentration of eluted phages relative to weight of cancer tissue) [2, 6]: 3.45 pfu/mg; ex vivo ROI [2, 6]: 0.62; in vivo ROI [1, 3]: 1.00; pfu/mg (concentration of eluted phages relative to weight of cancer tissue) [1, 3]: 1.90 pfu/mg; ex vivo ROI [1, 3]: 2.92
8 | GYSSFNR [B6] |  |  | 1.12 | 3.96 | 0.62 | in vivo ROI [2, 6]: 3.03; pfu/mg (concentration of eluted phages relative to weight of cancer tissue) [2, 6]: 211.76 pfu/mg; ex vivo ROI [2, 6]: 2.06
9 | DVSGNW [A8] | 2.99 | 1.57 |  |  |  | pfu/mg (concentration of eluted phages relative to weight of cancer tissue) [2, 4]: 8.56 pfu/mg
10 | VPSQKSK [B4] |  |  |  |  |  | in vivo ROI [2, 6]: 2.12; pfu/mg (concentration of eluted phages relative to weight of cancer tissue) [2, 6]: 20.62 pfu/mg; ex vivo ROI [2, 6]: 1.36
11 | TAFSLGK [E6] |  |  | 0.78 | 4.24 | 0.77 | 
12 | LKTSGTY [E15] |  |  | 0.77 | 6.13 | 0.47 | 
13 | TVRSSAE [B3] |  |  |  |  |  | in vivo ROI [2, 6]: 2.38; pfu/mg (concentration of eluted phages relative to weight of cancer tissue) [2, 6]: 195.40 pfu/mg; ex vivo ROI [2, 6]: 1.63
14 | GQSGARF [F8] |  |  |  |  |  | in vivo ROI [1, 3]: 1.18; pfu/mg (concentration of eluted phages relative to weight of cancer tissue) [1, 3]: 6.10 pfu/mg; ex vivo ROI [1, 3]: 1.92
15 | MNFIQKN [E11] |  |  | 1.05 | 4.43 | 0.34 | 
16 | KLTQMM [F1] |  |  |  |  |  | in vivo ROI [1, 3]: 1.63; pfu/mg (concentration of eluted phages relative to weight of cancer tissue) [1, 3]: 6.73 pfu/mg; ex vivo ROI [1, 3]: 2.39
17 | VQMPAHS [E4] |  |  | 0.84 | 5.00 | 0.94 | 
18 | ASKSTHD [A7] | 1.80 | 1.08 |  |  |  | pfu/mg (concentration of eluted phages relative to weight of cancer tissue) [2, 4]: 27.14 pfu/mg
19 | KISLPHN [E13] |  |  | 1.50 | 1.22 | 0.93 | 
20 | YVSKNNS [E17] |  |  | 1.66 | 204.00 | 1.29 | 

Row | Substance | in vivo ROI [2, 4] | ex vivo ROI [2, 4] | in vivo ROI [1, 5] | pfu/mg (concentration of eluted phages relative to weight of cancer tissue) [1, 5] [pfu/mg] | ex vivo ROI [1, 5] | also measured
21 | NTGSPYE [A2, 7-amino-acid loop peptide expressed on M13 phage, tested as Cy5.5-labeled phage] | 2.04 | 1.61 | 1.13 | 1.55 | 0.77 | pfu/mg (concentration of eluted phages relative to weight of cancer tissue) [2, 4]: 181.48 pfu/mg; in vivo ROI [1, 3]: 1.15; pfu/mg (concentration of eluted phages relative to weight of cancer tissue) [1, 3]: 4.75 pfu/mg; ex vivo ROI [1, 3]: 2.64
22 | MARYMSA [A10] | 2.26 | 1.58 |  |  |  | pfu/mg (concentration of eluted phages relative to weight of cancer tissue) [2, 4]: 183.16 pfu/mg
23 | QQTKNYY [E7] |  |  | 2.02 | 58.32 | 1.38 | 
24 | HKTEHRS [E18] |  |  | 0.69 | 4.15 | 0.21 | 
25 | GGNSNQR [E5] |  |  | 0.92 | 15.96 | 0.76 | 
26 | SFFPFST [F3] |  |  |  |  |  | in vivo ROI [1, 3]: 1.07; pfu/mg (concentration of eluted phages relative to weight of cancer tissue) [1, 3]: 22.31 pfu/mg; ex vivo ROI [1, 3]: 2.64
27 | LGSVGRD [F7] |  |  |  |  |  | in vivo ROI [1, 3]: 1.61; pfu/mg (concentration of eluted phages relative to weight of cancer tissue) [1, 3]: 141.04 pfu/mg; ex vivo ROI [1, 3]: 3.97
28 | AFKSPSG [E14] |  |  | 0.70 | 2.89 | 0.55 | 
29 | QLWQKEQ [F5] |  |  |  |  |  | in vivo ROI [1, 3]: 1.63; pfu/mg (concentration of eluted phages relative to weight of cancer tissue) [1, 3]: 144.55 pfu/mg; ex vivo ROI [1, 3]: 3.72
30 | DETSGQI [E12] |  |  | 1.24 | 5.56 | 1.07 | 
31 | NTWMKSK [A11] | 1.93 | 0.95 |  |  |  | pfu/mg (concentration of eluted phages relative to weight of cancer tissue) [2, 4]: 6.71 pfu/mg
32 | LQPKASQ [A6] | 2.75 | 1.47 |  |  |  | pfu/mg (concentration of eluted phages relative to weight of cancer tissue) [2, 4]: 15.4 pfu/mg
33 | STMNGKV [B1] |  |  |  |  |  | in vivo ROI [2, 6]: 1.52; pfu/mg (concentration of eluted phages relative to weight of cancer tissue) [2, 6]: 16.67 pfu/mg; ex vivo ROI [2, 6]: 1.48
34 | LTGSVNK [E10] |  |  | 1.19 | 2.25 | 1.00 | 
35 | SNVYDHN [A3] | 1.62 | 0.67 |  |  |  | pfu/mg (concentration of eluted phages relative to weight of cancer tissue) [2, 4]: 34.8 pfu/mg
36 | DLLHRGA [A9] | 2.35 | 0.56 |  |  |  | pfu/mg (concentration of eluted phages relative to weight of cancer tissue) [2, 4]: 54.17 pfu/mg
37 | SWGDRIL [A5] | 2.16 | 1.52 |  |  |  | pfu/mg (concentration of eluted phages relative to weight of cancer tissue) [2, 4]: 51.38 pfu/mg
38 | Cy5.5 [reference compound] | 1.00 | 1.00 | 1.00 |  | 1.00 | in vivo ROI [2, 6]: 1.00; ex vivo ROI [2, 6]: 1.00; in vivo ROI [1, 3]: 1.00; ex vivo ROI [1, 3]: 1.00
39 | TNPYPLD [F10] |  |  |  |  |  | in vivo ROI [1, 3]: 1.91; pfu/mg (concentration of eluted phages relative to weight of cancer tissue) [1, 3]: 7.86 pfu/mg; ex vivo ROI [1, 3]: 1.74
40 | SHMEYPR [A1, 7-amino-acid loop peptide expressed on M13 phage, tested as Cy5.5-labeled phage] | 1.77 | 1.27 | 1.68 | 74.12 | 1.72 | in vivo ROI [2, 6]: 2.27; pfu/mg (concentration of eluted phages relative to weight of cancer tissue) [2, 6]: 230 pfu/mg; ex vivo ROI [2, 6]: 1.89; pfu/mg (concentration of eluted phages relative to weight of cancer tissue) [2, 4]: 136.36 pfu/mg
